Test system: L. acidophilus NCFM
Assay: RNA-seq transcriptional analysis of L. acidophilus NCFM growing on plant glycosides
Type: cell-based, Lactobacillus acidophilus
[1] = LBA0329 Putative cell division protein, COG D
[2] = LBA0466 Hypothetical protein, COG C
[3] = LBA0500 MSM operon repressor, COG K
[4] = LBA0545 Hypothetical protein, COG L
[5] = LBA0547 Putative site-specific recombinase, COG L
[6] = LBA0573 Putative transcriptional regulator, COG K
[7] = LBA0607 Putative transcriptional regulator, COG K
[8] = LBA0672 Putative phosphate starvation inducible protein stress related, COG J
[9] = LBA0753 Multi-drug-type permease, COG GEPR
[10] = LBA0886 Sugar kinase-putative transcriptional regulator, COG KG
[11] = LBA0887 Hypothetical protein, COG C
[12] = LBA0897 Putative Cro-like protein, COG K
[13] = LBA0910 L-lactate dehydrogenase, COG C
[14] = LBA1021 Putative transcriptional regulator, COG K
[15] = LBA1220 Pyridine mercuric reductase, COG C
[16] = LBA1392 Mucus binding protein precursor Mub, COG J
[17] = LBA1411 Fumarate reductase flavoprotein subunit, COG CS
[18] = LBA1436 Glycerol uptake facilitator protein, COG G
[19] = LBA1457 Galactose-1-epimerase, COG G
[20] = LBA1458 Galactose-1-phosphate uridylyltransferase, COG G
[21] = LBA1462 Beta-galactosidase, COG G
[22] = LBA1463 Lactose permease, COG G
[23] = LBA1465 Transcription repressor of beta-galactosidasegene, COG K
[24] = LBA1467 Beta-galactosidase large subunit (lactase), COG G
[25] = LBA1468 Beta-galactosidase small subunit, COG G
[26] = LBA1481 D-ribose-binding protein precursor, COG G
[27] = LBA1482 Ribose ABC transporter, COG G
[28] = LBA1483 Ribose ABC transporter ATP binding protein, COG G
[29] = LBA1484 D-ribose pyranase, COG G
[30] = LBA1494 Lincomycin-resistance protein, COG GEPR
[31] = LBA1607 Phosphatidylserine decarboxylase precursor, COG I
[32] = LBA1632 NAD-dependent aldehyde dehydrogenase, COG C
[33] = LBA1653 Nicotinamide mononucleotide, COG H
[34] = LBA1684 Putative PTS system IIA component, COG G
[35] = LBA1689 Maltose-6′-phosphate Oucosidase, COG G
[36] = LBA1700 Transcriptional regulator-type, COG K
[37] = LBA1701 Melibiose operon regulatory protein, COG K
[38] = LBA1705 PTS system IIBC component, COG G
[39] = LBA1708 Transcriptional antiterminator, COG K
[40] = LBA1710 Thermostable pullulanase, COG G
[41] = LBA1812 Alpha-glucosidase II, COG G
[42] = LBA1870 Maltose phosphorylase, COG G
[43] = LBA1872 Oligo-1,6-glucosidase, COG G

For `OC[C@H]1O[C@@H](O[C@H]2[C@H](O)[C@@H](O)[C@@H](O)O[C@@H]2CO)[C@H](O)[C@@H](O)[C@H]1O` [Lac], the “Log2 differential normalized TPM ratio compared to glucose” value (“Log2 differential normalized TPM ratio” for short) (LBA0016 Fructokinase, COG KG) was 1.2, the “Transcripts per million (rpm)” value (LBA0016 Fructokinase, COG KG) was 211.4 rpm and the “Log2 differential normalized TPM ratio” value [1] was 0.4. For the same molecule, the “Transcripts per million (rpm)” value [1] was 22.1 rpm, the “Log2 differential normalized TPM ratio” value [2] was 1.5 and the “Transcripts per million (rpm)” value [2] was 270 rpm. For the same molecule, the “Log2 differential normalized TPM ratio” value [3] was 1.6, the “Transcripts per million (rpm)” value [3] was 162 rpm and the “Log2 differential normalized TPM ratio” value [4] was 2. For the same molecule, the “Transcripts per million (rpm)” value [4] was 306 rpm, the “Log2 differential normalized TPM ratio” value [5] was 1.7 and the “Transcripts per million (rpm)” value [5] was 37.9 rpm. For the same molecule, the “Log2 differential normalized TPM ratio” value [6] was 0.1, the “Transcripts per million (rpm)” value [6] was 98.5 rpm and the “Log2 differential normalized TPM ratio” value [7] was 0.5. For the same molecule, the “Transcripts per million (rpm)” value [7] was 66.9 rpm, the “Log2 differential normalized TPM ratio” value [8] was 0.8 and the “Transcripts per million (rpm)” value [8] was 2957.4 rpm. The “Log2 differential normalized TPM ratio” value [9] was −0.8, the “Transcripts per million (rpm)” value [9] was 29.5 rpm and the “Log2 differential normalized TPM ratio” value [10] was 0.2. The “Transcripts per million (rpm)” value [10] was 7.7 rpm, the “Log2 differential normalized TPM ratio” value [11] was 1.2 and the “Transcripts per million (rpm)” value [11] was 133.7 rpm. The “Log2 differential normalized TPM ratio” value [12] was −2.4, the “Transcripts per million (rpm)” value [12] was 0.5 rpm and the “Log2 differential normalized TPM ratio” value [13] was 1. For the same molecule, the “Transcripts per million (rpm)” value [13] was 257.2 rpm, the “Log2 differential normalized TPM ratio” value [14] was 0.3 and the “Transcripts per million (rpm)” value [14] was 186.9 rpm. For the same molecule, the “Log2 differential normalized TPM ratio” value [15] was 1, the “Transcripts per million (rpm)” value [15] was 394.7 rpm and the “Log2 differential normalized TPM ratio” value [16] was −0.2. For the same molecule, the “Transcripts per million (rpm)” value [16] was 88.9 rpm, the “Log2 differential normalized TPM ratio” value [17] was 1.1 and the “Transcripts per million (rpm)” value [17] was 4.7 rpm. The “Log2 differential normalized TPM ratio” value [18] was 3.8, the “Transcripts per million (rpm)” value [18] was 37 rpm and the “Log2 differential normalized TPM ratio” value [19] was 5.6. The “Transcripts per million (rpm)” value [19] was 732.6 rpm, the “Log2 differential normalized TPM ratio” value [20] was 5.7 and the “Transcripts per million (rpm)” value [20] was 679.9 rpm. For the same molecule, the “Log2 differential normalized TPM ratio” value (LBA1459 Galactokinase, COG G) was 4.6, the “Transcripts per million (rpm)” value (LBA1459 Galactokinase, COG G) was 610.1 rpm and the “Log2 differential normalized TPM ratio” value [21] was 6. For the same molecule, the “Transcripts per million (rpm)” value [21] was 1123.2 rpm, the “Log2 differential normalized TPM ratio” value [22] was 4.7 and the “Transcripts per million (rpm)” value [22] was 1427.3 rpm. For the same molecule, the “Log2 differential normalized TPM ratio” value (LBA1464 Transposase, COG L) was 2.4, the “Transcripts per million (rpm)” value (LBA1464 Transposase, COG L) was 956 rpm and the “Log2 differential normalized TPM ratio” value [23] was 3.1. For the same molecule, the “Transcripts per million (rpm)” value [23] was 485.8 rpm, the “Log2 differential normalized TPM ratio” value [24] was 8.8 and the “Transcripts per million (rpm)” value [24] was 2333 rpm. For the same molecule, the “Log2 differential normalized TPM ratio” value [25] was 6.4, the “Transcripts per million (rpm)” value [25] was 1790.7 rpm and the “Log2 differential normalized TPM ratio” value [26] was 0.7. For the same molecule, the “Transcripts per million (rpm)” value [26] was 8.1 rpm, the “Log2 differential normalized TPM ratio” value [27] was 1 and the “Transcripts per million (rpm)” value [27] was 7.9 rpm. The “Log2 differential normalized TPM ratio” value [28] was 1, the “Transcripts per million (rpm)” value [28] was 6.4 rpm and the “Log2 differential normalized TPM ratio” value [29] was 0.6. The “Transcripts per million (rpm)” value [29] was 6.1 rpm, the “Log2 differential normalized TPM ratio” value (LBA1485 Ribokinase, COG G) was 0.7 and the “Transcripts per million (rpm)” value (LBA1485 Ribokinase, COG G) was 5.2 rpm. For the same molecule, the “Log2 differential normalized TPM ratio” value [30] was 0.1, the “Transcripts per million (rpm)” value [30] was 5.7 rpm and the “Log2 differential normalized TPM ratio” value [31] was 1. The “Transcripts per million (rpm)” value [31] was 41.1 rpm, the “Log2 differential normalized TPM ratio” value [32] was 1.8 and the “Transcripts per million (rpm)” value [32] was 253.3 rpm. For the same molecule, the “Log2 differential normalized TPM ratio” value [33] was 0.6, the “Transcripts per million (rpm)” value [33] was 369.4 rpm and the “Log2 differential normalized TPM ratio” value [34] was 1.9. The “Transcripts per million (rpm)” value [34] was 48 rpm, the “Log2 differential normalized TPM ratio” value [35] was 1.4 and the “Transcripts per million (rpm)” value [35] was 9.7 rpm. For the same molecule, the “Log2 differential normalized TPM ratio” value [36] was 0.4, the “Transcripts per million (rpm)” value [36] was 28.8 rpm and the “Log2 differential normalized TPM ratio” value [37] was 0.8. The “Transcripts per million (rpm)” value [37] was 69.9 rpm, the “Log2 differential normalized TPM ratio” value [38] was 0.8 and the “Transcripts per million (rpm)” value [38] was 6.1 rpm. For the same molecule, the “Log2 differential normalized TPM ratio” value [39] was 1.4, the “Transcripts per million (rpm)” value [39] was 1.6 rpm and the “Log2 differential normalized TPM ratio” value [40] was 0.4. For the same molecule, the “Transcripts per million (rpm)” value [40] was 9.9 rpm, the “Log2 differential normalized TPM ratio” value (LBA1723 Transposase, COG L) was 0.2 and the “Transcripts per million (rpm)” value (LBA1723 Transposase, COG L) was 62 rpm. For the same molecule, the “Log2 differential normalized TPM ratio” value [41] was 2, the “Transcripts per million (rpm)” value [41] was 68.8 rpm and the “Log2 differential normalized TPM ratio” value [42] was −1.2. The “Transcripts per million (rpm)” value [42] was 46.3 rpm, the “Log2 differential normalized TPM ratio” value (LBA1871 Neopullulanase, COG G) was 0.7 and the “Transcripts per million (rpm)” value (LBA1871 Neopullulanase, COG G) was 4.5 rpm. The “Log2 differential normalized TPM ratio” value [43] was 0.4, the “Transcripts per million (rpm)” value [43] was 4 rpm and the “Log2 differential normalized TPM ratio” value (LBA1873 Acetate kinase, COG C) was 1.4. For the same molecule, the “Transcripts per million (rpm)” value (LBA1873 Acetate kinase, COG C) was 9 rpm.
